Laboratory results: patent publication US9695155B2, “Herbicidal substituted pyrimidinyloxy benzene compounds” (E. I. DU PONT DE NEMOURS AND COMPANY, priority 2013, dated 2017)

Assays:
corn [1] = experiment: Test A preemergence; assay type: in vivo, Zea mays
Summary of the method: (§1)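 Compounds in non-phytotoxic solvent with surfactant applied as soil spray preemergence, or postemergence to plants 2-10 cm at one- to two-leaf stage, in loam/sand. After approximately 10 days in greenhouse, injury rated visually versus untreated controls, 0 (no effect) to 100 (complete control).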

morningglory [2] = experiment: Test A postemergence; assay type: in vivo, Ipomoea spp.; conditions: 0 to 100 scale where 0 is no effect and 100 is complete control
Summary of the method: as §1

pigweed = experiment: Test C postemergence; assay type: in vivo, Amaranthus retroflexus
Summary of the method: (§2)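 Rated visually on 0–100 (100 = complete control) after 13–15 days under glass. Treatments went onto freshly seeded loam/sand soil or onto emerged plants at the 1- to 4-leaf stage, using a surfactant-containing solvent formulation.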

Heteranthera limosa = experiment: Test B flooded paddy test; assay type: in vivo; conditions: Flood, 250 g ai/ha; 0 to 100 scale where 0 is no effect and 100 is complete control
Summary of the method: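 Post-emergence paddy-water application at the 2-leaf stage, with 3 cm flood kept for the whole test. Response was judged visually relative to controls after 13 to 15 greenhouse days, 0 indicating no effect and 100 complete control.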

velvetleaf [3] = experiment: Test C postemergence; assay type: in vivo, Abutilon theophrasti
Summary of the method: as §2

morningglory [4] = experiment: Test C postemergence; assay type: in vivo, Ipomoea coccinea
Summary of the method: as §2

barnyardgrass = experiment: Test A postemergence; assay type: in vivo, Echinochloa crus-galli; conditions: 0 to 100 scale where 0 is no effect and 100 is complete control
Summary of the method: as §1

giant foxtail [5] = experiment: Test C postemergence; assay type: in vivo, Setaria faberii
Summary of the method: as §2

giant foxtail [6] = experiment: Test A postemergence; assay type: in vivo, Setaria faberii; conditions: 0 to 100 scale where 0 is no effect and 100 is complete control
Summary of the method: as §1

corn [7] = experiment: Test A postemergence; assay type: in vivo, Zea mays; conditions: 0 to 100 scale where 0 is no effect and 100 is complete control
Summary of the method: as §1

oilseed rape = experiment: Test C postemergence; assay type: in vivo, Brassica napus
Summary of the method: as §2

waterhemp = experiment: Test C postemergence; assay type: in vivo, Amaranthus rudis
Summary of the method: as §2

large (Lg) crabgrass = experiment: Test A preemergence; assay type: in vivo, Digitaria sanguinalis
Summary of the method: as §1

johnsongrass = experiment: Test C postemergence; assay type: in vivo, Sorghum halepense
Summary of the method: as §2

corn [8] = experiment: Test C postemergence; assay type: in vivo, Zea mays
Summary of the method: as §2

velvetleaf [9] = experiment: Test A preemergence; assay type: in vivo, Abutilon theophrasti
Summary of the method: as §1

[10] = 500 g ai/ha, 0 to 100 scale where 0 is no effect and 100 is complete control
[11] = 31 g ai/ha, postemergence, visual rating, scale 0 to 100 (0 no effect, 100 complete control), 13 to 15 days
[12] = 125 g ai/ha, postemergence, visual rating, scale 0 to 100 (0 no effect, 100 complete control)
[13] = Postemergence, 62 g ai/ha, scale 0 to 100 (0 no effect, 100 complete control), 13 to 15 days

Q: For N#Cc1cnn(-c2c(C#N)cccc2Oc2ncc(Cl)cn2)c1 [Compound 200], which “Corn plant response rating (0 to 100 scale)” value (corn [1]; 125 g ai/ha) is on record?
A: The value was 40.

Q: And the “Corn plant response rating” value (corn [1]; [10])?
A: Its value is 50.

Q: What about the “Morningglory plant response rating” value (morningglory [2]; 125 g ai/ha) of the same molecule?
A: The value was 90.

Q: What about the “Plant response rating, Morningglory” value (morningglory [2]; 500 g ai/ha) of the same molecule?
A: The value was 100.

Q: What about the “Pigweed plant response rating” value (pigweed; [11]) of the same molecule?
A: Its value is 75.

Q: And the “Plant response rating, Pigweed” value (pigweed; [12])?
A: The value was 95.

Q: And the “Plant response rating (0 to 100), Pigweed” value (pigweed; 250 g ai/ha, postemergence)?
A: The value was 95.

Q: And the “Plant response rating, Pigweed” value (pigweed; [13])?
A: The value was 90.

Q: And the “Plant response rating, Ducksalad” value (Heteranthera limosa)?
A: Its value is 95.

Q: What about the “Velvetleaf plant response rating” value (velvetleaf [3]; [11]) of the same molecule?
A: Its value is 20.

Q: And the “Plant response rating, Velvetleaf” value (velvetleaf [3]; [12])?
A: Its value is 75.

Q: What about the “Plant response rating (0 to 100), Velvetleaf” value (velvetleaf [3]; 250 g ai/ha, postemergence) of the same molecule?
A: Its value is 70.

Q: What about the “Plant response rating, Velvetleaf” value (velvetleaf [3]; [13]) of the same molecule?
A: The value was 50.

Q: And the “Morningglory plant response rating” value (morningglory [4]; [11])?
A: Its value is 85.

Q: What about the “Plant response rating, Morningglory” value (morningglory [4]; [12]) of the same molecule?
A: The value was 95.

Q: What about the “Plant response rating (0 to 100), Morningglory” value (morningglory [4]; 250 g ai/ha, postemergence) of the same molecule?
A: Its value is 95.

Q: What about the “Plant response rating, Morningglory” value (morningglory [4]; [13]) of the same molecule?
A: Its value is 80.

Q: What about the “Barnyardgrass plant response rating” value (barnyardgrass; 125 g ai/ha) of the same molecule?
A: The value was 80.

Q: What about the “Plant response rating, Barnyardgrass” value (barnyardgrass; 500 g ai/ha) of the same molecule?
A: The value was 90.

Q: What about the “Foxtail, Giant plant response rating” value (giant foxtail [5]; [11]) of the same molecule?
A: The value was 5.

Q: And the “Plant response rating, Foxtail, Giant” value (giant foxtail [5]; [12])?
A: The value was 5.

Q: What about the “Plant response rating (0 to 100), Foxtail, Giant” value (giant foxtail [5]; 250 g ai/ha, postemergence) of the same molecule?
A: The value was 15.

Q: And the “Plant response rating, Foxtail, Giant” value (giant foxtail [5]; [13])?
A: The value was 5.

Q: What about the “Foxtail, Giant plant response rating” value (giant foxtail [6]; 125 g ai/ha) of the same molecule?
A: Its value is 90.

Q: And the “Plant response rating, Foxtail, Giant” value (giant foxtail [6]; 500 g ai/ha)?
A: Its value is 90.

Q: What about the “Corn plant response rating” value (corn [7]; 125 g ai/ha) of the same molecule?
A: The value was 50.

Q: And the “Plant response rating, Corn” value (corn [7]; 500 g ai/ha)?
A: The value was 60.

Q: What about the “Oilseed Rape plant response rating” value (oilseed rape; [11]) of the same molecule?
A: Its value is 55.

Q: What about the “Plant response rating, Oilseed Rape” value (oilseed rape; [12]) of the same molecule?
A: Its value is 50.

Q: And the “Plant response rating (0 to 100), Oilseed Rape” value (oilseed rape; 250 g ai/ha, postemergence)?
A: The value was 70.

Q: And the “Plant response rating, Oilseed Rape” value (oilseed rape; [13])?
A: The value was 55.

Q: And the “Waterhemp plant response rating” value (waterhemp; [11])?
A: The value was 70.

Q: What about the “Plant response rating, Waterhemp” value (waterhemp; [12]) of the same molecule?
A: Its value is 90.

Q: And the “Plant response rating (0 to 100), Waterhemp” value (waterhemp; 250 g ai/ha, postemergence)?
A: Its value is 95.

Q: What about the “Plant response rating, Waterhemp” value (waterhemp; [13]) of the same molecule?
A: The value was 98.

Q: What about the “Crabgrass, Large plant response rating (0 to 100 scale)” value (large (Lg) crabgrass; 125 g ai/ha) of the same molecule?
A: Its value is 100.

Q: And the “Crabgrass, Large plant response rating” value (large (Lg) crabgrass; [10])?
A: Its value is 100.

Q: What about the “Johnsongrass plant response rating” value (johnsongrass; [11]) of the same molecule?
A: The value was 5.

Q: What about the “Plant response rating, Johnsongrass” value (johnsongrass; [12]) of the same molecule?
A: The value was 5.

Q: And the “Plant response rating (0 to 100), Johnsongrass” value (johnsongrass; 250 g ai/ha, postemergence)?
A: The value was 30.

Q: What about the “Plant response rating, Johnsongrass” value (johnsongrass; [13]) of the same molecule?
A: Its value is 5.

Q: And the “Corn plant response rating” value (corn [8]; [11])?
A: The value was 5.

Q: What about the “Plant response rating, Corn” value (corn [8]; [12]) of the same molecule?
A: The value was 15.

Q: And the “Plant response rating (0 to 100), Corn” value (corn [8]; 250 g ai/ha, postemergence)?
A: The value was 20.

Q: And the “Plant response rating, Corn” value (corn [8]; [13])?
A: The value was 10.

Q: What about the “Velvetleaf plant response rating (0 to 100 scale)” value (velvetleaf [9]; 125 g ai/ha) of the same molecule?
A: Its value is 100.

Q: And the “Velvetleaf plant response rating” value (velvetleaf [9]; [10])?
A: Its value is 100.
